Test results taken from US8106055B2, “Substituted amide compounds” (Gruenenthal GmbH, priority 2007, dated 2012).

Tests used:
human μ opiate receptor = molecular target: T1, human μ opiate receptor (Homo sapiens, UniProt P35372); experiment: Affinity for the human μ opiate receptor ([3H]-naloxone displacement, CHO-K1 receptor membrane preparation, SPA); format: binding; settings: 1.5 h, Table 3, to be read in the same way as Table 1; test concentration 1 μM; read-out: μ
T1 construct: purchased PerkinElmer Life Sciences, Zaventem, Belgium RB-HOM; host or cells: CHO-K1 cells (membrane preparation)
Procedure, shortened: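 Scintillation proximity binding on human μ receptor membranes from CHO-K1 cells used 1 nmol/l [3H]-naloxone over 90 min at room temperature in 50 mmol/l Tris-HCl, 0.06% BSA. Percent inhibition was recorded at 1 μM.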

[1] = molecular target: T2, bradykinin 1 receptor (B1R) of the rat (Rattus norvegicus, UniProt P97583); experiment: Functional investigation on the rat bradykinin 1 receptor (B1R), Ca2+ FLIPR assay in CHO K1 rB1R cells; format: cell-based; settings: CHO-K1, B1R antagonism rat; test substance 10 μM; Ca2+ FLIPR, CHO K1 rB1R cells; read-out: B1R Ant. r [10 μM] % Inhibition
T2 construct: expressed in transfected cells; host or cells: CHO K1 cells
T2 sequence (P97583 1-337): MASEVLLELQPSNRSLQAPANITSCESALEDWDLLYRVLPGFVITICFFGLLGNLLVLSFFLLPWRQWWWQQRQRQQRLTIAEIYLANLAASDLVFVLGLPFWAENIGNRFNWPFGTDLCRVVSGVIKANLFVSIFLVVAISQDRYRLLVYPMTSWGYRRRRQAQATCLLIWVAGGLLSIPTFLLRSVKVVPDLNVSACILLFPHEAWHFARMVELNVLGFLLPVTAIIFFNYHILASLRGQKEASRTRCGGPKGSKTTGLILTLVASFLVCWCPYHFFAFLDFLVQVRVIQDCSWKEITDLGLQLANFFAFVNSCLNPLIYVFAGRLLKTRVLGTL
Procedure, shortened: (§1)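 Cells were dye-loaded with Fluo-4 plus probenecid, then test substances added and Ca2+ influx compared with agonist control for % activation. After 10-20 min, EC80 agonist (Lys-Des-Arg9-bradykinin human; Des-Arg9-bradykinin rat) was applied; suppression gave % inhibition and IC50 values.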

[2] = molecular target: T3, human bradykinin 1 receptor (B1R) (Homo sapiens, UniProt P46663); experiment: Functional investigation on the human bradykinin 1 receptor (B1R), Ca2+ FLIPR assay in CHO K1 hB1R cells; format: cell-based; settings: CHO-K1, B1R antagonism human; test substance 10 μM; Ca2+ FLIPR, CHO K1 hB1R cells; read-out: B1R Ant. h [10 μM] % Inhibition
T3 construct: expressed in transfected cells; host or cells: CHO K1 cells
T3 sequence (P46663 1-353): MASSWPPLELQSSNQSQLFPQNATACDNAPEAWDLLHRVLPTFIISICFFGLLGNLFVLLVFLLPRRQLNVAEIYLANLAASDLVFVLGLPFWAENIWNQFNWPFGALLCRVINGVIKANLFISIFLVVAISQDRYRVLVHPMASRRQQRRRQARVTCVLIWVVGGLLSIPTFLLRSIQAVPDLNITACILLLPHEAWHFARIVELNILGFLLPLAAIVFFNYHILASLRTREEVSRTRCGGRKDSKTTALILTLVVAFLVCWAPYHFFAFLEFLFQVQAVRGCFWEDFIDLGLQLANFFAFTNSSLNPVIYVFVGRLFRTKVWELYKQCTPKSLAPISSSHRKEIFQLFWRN
Procedure, shortened: as §1

T1 sequence (P35372 whole entry): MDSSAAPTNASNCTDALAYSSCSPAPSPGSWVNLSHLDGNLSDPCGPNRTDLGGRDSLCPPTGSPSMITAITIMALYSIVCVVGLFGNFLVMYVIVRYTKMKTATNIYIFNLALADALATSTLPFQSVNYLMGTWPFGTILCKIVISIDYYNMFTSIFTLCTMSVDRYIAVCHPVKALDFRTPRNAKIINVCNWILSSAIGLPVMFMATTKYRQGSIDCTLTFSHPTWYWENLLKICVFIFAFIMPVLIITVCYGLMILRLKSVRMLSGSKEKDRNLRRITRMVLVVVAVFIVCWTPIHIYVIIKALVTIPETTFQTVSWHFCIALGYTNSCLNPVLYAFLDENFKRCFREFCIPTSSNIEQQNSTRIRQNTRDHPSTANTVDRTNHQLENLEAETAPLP

Row | Compound | inhibition at 1 µM (human μ opiate receptor) [%] | inhibition at 10 µM [1] [%] | inhibition at 10 µM [2] [%]
1 | COc1cc(C)c(S(=O)(=O)N2CCCCC2COCC(=O)NCC2CCC(C(c3ccccc3)N3CCOCC3)CC2)c(C)c1 (stereo not drawn) [Example 711, 2-((1-(4-methoxy-2,6-dimethylphenylsulfonyl)piperidin-2-yl)methoxy)-N-((4-(morpholino(phenyl)methyl)cyclohexyl)methyl)acetamide] | 33 | 103 | 86
2 | O=C(COCC1CCCCN1S(=O)(=O)c1c(Cl)cc(Cl)cc1Cl)NCC1CCC(C(c2ccccc2)N2CCOCC2)CC1 (stereo not drawn) [Example 712, N-((4-(morpholino(phenyl)methyl)cyclohexyl)methyl)-2-((1-(2,4,6-trichlorophenylsulfonyl)piperidin-2-yl)methoxy)acetamide] | 40 | 100 | 46
3 | CN1CCN(C(c2ccccc2)C2CCC(NC(=O)COCCN(C)S(=O)(=O)c3c(Cl)cc(Cl)cc3Cl)CC2)CC1 (stereo not drawn) [Example 714, N-(4-((4-methylpiperazin-1-yl)(phenyl)methyl)cyclohexyl)-2-(2-(2,4,6-trichloro-N-methylphenylsulfonamido)ethoxy)acetamide] | 52 | 64 | 104
4 | CN(CCOCC(=O)NCC1CCC(C(CCc2ccccc2)N2CCOCC2)CC1)S(=O)(=O)c1c(Cl)cc(Cl)cc1Cl (stereo not drawn) [Example 715, N-((4-(1-morpholino-3-phenylpropyl)cyclohexyl)methyl)-2-(2-(2,4,6-trichloro-N-methylphenylsulfonamido)ethoxy)acetamide] | 10 | 24 | 55
5 | CN(CCOCC(=O)NCC1CCC(C(CCc2ccccc2)N2CCOCC2)CC1)S(=O)(=O)c1ccc(Cl)cc1Cl (stereo not drawn) [Example 716, 2-(2-(2,4-dichloro-N-methylphenylsulfonamido)ethoxy)-N-((4-(1-morpholino-3-phenylpropyl)cyclohexyl)methyl)acetamide] | 13 | 31 | 59
6 | CN(CCOCC(=O)NCC1CCC(C(CCc2ccccc2)N2CCCC2)CC1)S(=O)(=O)c1ccc(Cl)cc1Cl (stereo not drawn) [Example 717, 2-(2-(2,4-dichloro-N-methylphenylsulfonamido)ethoxy)-N-((4-(3-phenyl-1-(pyrrolidin-1-yl)propyl)cyclohexyl)methyl)acetamide] | 22 | 88 | 100
7 | COc1cc(C)c(S(=O)(=O)N(C)CCOCC(=O)NCC2CCC(C(c3ccccc3)N3CCOCC3)CC2)c(C)c1 (stereo not drawn) [Example 718, 2-(2-(4-methoxy-N,2,6-trimethylphenylsulfonamido)ethoxy)-N-((4-(morpholino(phenyl)methyl)cyclohexyl)methyl)acetamide] | 4 | 96 | 105
8 | COc1cc(C)c(S(=O)(=O)N(C)CCOCC(=O)NCC2CCC(C(CCc3ccccc3)N3CCOCC3)CC2)c(C)c1 (stereo not drawn) [Example 719, 2-(2-(4-methoxy-N,2,6-trimethylphenylsulfonamido)ethoxy)-N-((4-(1-morpholino-3-phenylpropyl)cyclohexyl)methyl)acetamide] | 6 | 101 | 103
9 | COc1cc(C)c(S(=O)(=O)N(C)CCOCC(=O)NCC2CCC(C(CCc3ccccc3)N3CCCC3)CC2)c(C)c1 (stereo not drawn) [Example 720, 2-(2-(4-methoxy-N,2,6-trimethylphenylsulfonamido)ethoxy)-N-((4-(3-phenyl-1-(pyrrolidin-1-yl)propyl)cyclohexyl)methyl)acetamide] | 26 | 101 | 101
10 | CN(CCOCC(=O)NCC1CCC(C(CCc2ccccc2)N2CCOCC2)CC1)S(=O)(=O)c1c(Cl)cccc1Cl (stereo not drawn) [Example 721, 2-(2-(2,6-dichloro-N-methylphenylsulfonamido)ethoxy)-N-((4-(1-morpholino-3-phenylpropyl)cyclohexyl)methyl)acetamide] | 7 | 57 | 94
11 | CN(CCOCC(=O)NCC1CCC(C(CCc2ccccc2)N2CCCC2)CC1)S(=O)(=O)c1c(Cl)cccc1Cl (stereo not drawn) [Example 722, 2-(2-(2,6-dichloro-N-methylphenylsulfonamido)ethoxy)-N-((4-(3-phenyl-1-(pyrrolidin-1-yl)propyl)cyclohexyl)methyl)acetamide] | 32 | 89 | 101
12 | O=C(COC1CCN(S(=O)(=O)c2c(Cl)cc(Cl)cc2Cl)C1)NCC1CCC(C(CCc2ccccc2)N2CCCC2)CC1 (stereo not drawn) [Example 723, N-((4-(3-phenyl-1-(pyrrolidin-1-yl)propyl)cyclohexyl)methyl)-2-(1-(2,4,6-trichlorophenylsulfonyl)pyrrolidin-3-yloxy)acetamide] | 35 | 40 | 90
13 | COc1cc(C)c(S(=O)(=O)N2CCC(OCC(=O)NCC3CCC(C(c4ccccc4)N4CCOCC4)CC3)C2)c(C)c1 (stereo not drawn) [Example 724, 2-(1-(4-methoxy-2,6-dimethylphenylsulfonyl)pyrrolidin-3-yloxy)-N-((4-(morpholino(phenyl)methyl)cyclohexyl)methyl)acetamide] | 8 | 50 | 55
14 | COc1cc(C)c(S(=O)(=O)N2CCC(OCC(=O)NCC3CCC(C(CCc4ccccc4)N4CCOCC4)CC3)C2)c(C)c1 (stereo not drawn) [Example 725, 2-(1-(4-methoxy-2,6-dimethylphenylsulfonyl)pyrrolidin-3-yloxy)-N-((4-(1-morpholino-3-phenylpropyl)cyclohexyl)methyl)acetamide] | 10 | 63 | 96
15 | COc1cc(C)c(S(=O)(=O)N2CCC(OCC(=O)NCC3CCC(C(CCc4ccccc4)N4CCCC4)CC3)C2)c(C)c1 (stereo not drawn) [Example 726, 2-(1-(4-methoxy-2,6-dimethylphenylsulfonyl)pyrrolidin-3-yloxy)-N-((4-(3-phenyl-1-(pyrrolidin-1-yl)propyl)cyclohexyl)methyl)acetamide] | 23 | 94 | 103
16 | CN(CCOCC(=O)NCC1CCC(C(c2ccccc2)N2CCOCC2)CC1)S(=O)(=O)c1c(Cl)cc(C(F)(F)F)cc1Cl (stereo not drawn) [Example 727, 2-(2-(2,6-dichloro-N-methyl-4-(trifluoromethyl)phenylsulfonamido)ethoxy)-N-((4-(morpholino(phenyl)methyl)cyclohexyl)methyl)acetamide] | 10 | 29 | 16
17 | CN(CCOCC(=O)NCC1CCC(C(CCc2ccccc2)N2CCOCC2)CC1)S(=O)(=O)c1c(Cl)cc(C(F)(F)F)cc1Cl (stereo not drawn) [Example 728, 2-(2-(2,6-dichloro-N-methyl-4-(trifluoromethyl)phenylsulfonamido)ethoxy)-N-((4-(1-morpholino-3-phenylpropyl)cyclohexyl)methyl)acetamide] | 12 | 9 | -9
18 | O=C(COC1CCCN(S(=O)(=O)c2c(Cl)cc(Cl)cc2Cl)C1)NCC1CCC(C(CCc2ccccc2)N2CCCC2)CC1 (stereo not drawn) [Example 729, N-((4-(3-phenyl-1-(pyrrolidin-1-yl)propyl)cyclohexyl)methyl)-2-(1-(2,4,6-trichlorophenylsulfonyl)piperidin-3-yloxy)acetamide] | 79 | 22 | 92
19 | COc1cc(C)c(S(=O)(=O)N2CCCC(OCC(=O)NCC3CCC(C(c4ccccc4)N4CCOCC4)CC3)C2)c(C)c1 (stereo not drawn) [Example 730, 2-(1-(4-methoxy-2,6-dimethylphenylsulfonyl)piperidin-3-yloxy)-N-((4-(morpholino(phenyl)methyl)cyclohexyl)methyl)acetamide] | 11 | 38 | 46
